Patent US5527781A, “4-O-(aminoglycosyl)- or 4,6-di-O-(aminoglycosyl)-2,5-dideoxy-5,5-difluorostreptamine derivatives” (Zaidan Hojin Biseibutsu Kagaku Kenkyu Kai, priority 1990, dated 1996)
Values after ≈ are worked out from the molar mass of the structure shown. Where two headings read alike, the source gives them in different places.

Columns and labels:
Escherichia coli K-12 R5 = assay: microbe, parasite or virus in culture; type: cell-based; conditions: K12R5; Escherichia coli K-12 R5; resistance mechanism AAC(6'); Mueller-Hinton agar, 37° C
[1] = tested on: Staphylococcus aureus 209P; assay: MIC, standard serial dilution method; type: cell-based; conditions: Mueller-Hinton agar, 37° C
Bacillus subtilis PCI219 = assay: MIC, standard serial dilution method; type: cell-based; conditions: Mueller-Hinton agar, 37° C
Mycobacterium 607 = assay: MIC, standard serial dilution method; type: cell-based; conditions: Mueller-Hinton agar, 37° C
[2] = tested on: Escherichia coli K-12 LA 290 R55; assay: microbe, parasite or virus in culture; type: cell-based; conditions: K12LA290R55
[3] = tested on: Escherichia coli JR66/W677; assay: microbe, parasite or virus in culture; type: cell-based; conditions: resistance mechanism APH(3')-II, ANT(2"), Mueller-Hinton agar, 37° C
Providencia sp. Pv 16 = assay: MIC, standard serial dilution method; type: cell-based; conditions: SP.PV16, resistance mechanism AAC(2'), Mueller-Hinton agar, 37° C
[4] = tested on: Staphylococcus aureus Ap01; assay: MIC, standard serial dilution method; type: cell-based; conditions: resistance mechanism ANT(4'), Mueller-Hinton agar, 37° C
[5] = tested on: Escherichia coli K-12 ML 1629; assay: microbe, parasite or virus in culture; type: cell-based; conditions: K12ML1629
Serratia marcescens = assay: MIC, standard serial dilution method; type: cell-based; conditions: Mueller-Hinton agar, 37° C
Escherichia coli JR225 = assay: microbe, parasite or virus in culture; type: cell-based; conditions: resistance mechanism AAC(3), Mueller-Hinton agar, 37° C
in vivo = conditions: mouse, iv, pH 7
Excerpt: Further, in order to estimate acute toxicity of the compound of the general formula (I) according to this invention, some examples of the compounds of this invention were independently dissolved in water to prepare aqueous solutions (as adjusted to pH 7 by addition of hydrochloric acid). […] The tested compounds of this invention are expressed by the same abbreviations as in Table 1. […] The comparative compounds as tested are also expressed by the same abbreviations as in Table 1.

[6] = tested on: Klebsiella pneumoniae 22#3038; assay: MIC, standard serial dilution method; type: cell-based; conditions: resistance mechanism APH(3')-II, ANT(2"), Mueller-Hinton agar, 37° C
[7] = tested on: Corynebacterium bovis 1810; assay: MIC, standard serial dilution method; type: cell-based; conditions: Mueller-Hinton agar, 37° C
[8] = tested on: Pseudomonas aeruginosa GN 315; assay: MIC, standard serial dilution method; type: cell-based; conditions: GN315; Pseudomonas aeruginosa GN 315; resistance mechanism AAC(6'); Mueller-Hinton agar, 37° C; read-out: MIC
Escherichia coli K-12 = assay: MIC, standard serial dilution method; type: cell-based; conditions: K12; Escherichia coli K-12; Mueller-Hinton agar, 37° C; read-out: MIC
[9] = tested on: Pseudomonas aeruginosa A3; assay: MIC, standard serial dilution method; type: cell-based; conditions: Mueller-Hinton agar, 37° C
Proteus rettgeri GN 311 = assay: MIC, standard serial dilution method; type: cell-based; conditions: Providencia rettgeri, GN311; Proteus rettgeri GN 311; Mueller-Hinton agar, 37° C; read-out: MIC
[10] = Escherichia coli K-12 LA 290 R55, resistance mechanism ANT(2"), Mueller-Hinton agar, 37° C
[11] = Escherichia coli K-12 ML 1629, resistance mechanism APH(3')-I, Mueller-Hinton agar, 37° C, read-out: MIC

Row | Compound | MIC (Escherichia coli K-12 R5) [µg/mL] | MIC [1] [µg/mL] | MIC (Bacillus subtilis PCI219) [µg/mL] | MIC (Mycobacterium 607) [µg/mL] | MIC [2, 10] [µg/mL] | MIC [3] [µg/mL] | MIC (Providencia sp. Pv 16) [µg/mL] | MIC [4] [µg/mL] | MIC [5, 11] [µg/mL] | MIC (Serratia marcescens) [µg/mL] | MIC (Escherichia coli JR225) [µg/mL] | LD50 (in vivo) [mg/kg] | MIC [6] [µg/mL] | MIC [7] [µg/mL] | MIC [8] [µg/mL] | MIC (Escherichia coli K-12) [µg/mL] | MIC [9] [µg/mL] | MIC (Proteus rettgeri GN 311) [µg/mL] | MIC ([5]; Escherichia coli) [µg/mL] | MIC ([2]; Escherichia coli) [µg/mL]
1 | CN[C@@H]1[C@@H](O)[C@@H](O[C@H]2[C@H](N)C[C@H](N)[C@@H](O[C@H]3O[C@H](CN)CC[C@H]3N)C2(F)F)OC[C@]1(C)O [5FF-Genta-C1a, 5-deoxy-5,5-difluorogentamicin C1a] | 12.5 (≈ 26.6 µM) | 0.78 (≈ 1.66 µM) | 0.39 (≈ 0.831 µM) | 0.78 (≈ 1.66 µM) | 3.12 (≈ 6.64 µM) | 1.56 (≈ 3.32 µM) | 12.5 (≈ 26.6 µM) | 3.12 (≈ 6.64 µM) | 0.39 (≈ 0.831 µM) | 6.25 (≈ 13.3 µM) | 3.12 (≈ 6.64 µM) | ~240 | 1.56 (≈ 3.32 µM) | 0.78 (≈ 1.66 µM) | 100 (≈ 213 µM) | < 0.2 | 0.78 (≈ 1.66 µM) | 0.39 (≈ 0.831 µM) |  | 
2 | CCN[C@@H]1C[C@H](N)[C@@H](O[C@H]2OC(CN)=CC[C@H]2N)C(F)(F)[C@H]1O[C@H]1OC[C@](C)(O)[C@H](NC)[C@H]1O [5FF-Netilmicin, 5-deoxy-5,5-difluoronetilmicin] | 50 (≈ 101 µM) | 3.12 (≈ 6.3 µM) | 0.39 (≈ 0.787 µM) | 1.56 (≈ 3.15 µM) | 0.39 (≈ 0.787 µM) | 0.78 (≈ 1.57 µM) | 12.5 (≈ 25.2 µM) | 12.5 (≈ 25.2 µM) |  | 6.25 (≈ 12.6 µM) | 1.56 (≈ 3.15 µM) | 47 | 1.56 (≈ 3.15 µM) | 1.56 (≈ 3.15 µM) | > 100 | < 0.2 | 1.56 (≈ 3.15 µM) | 1.56 (≈ 3.15 µM) | 0.78 (≈ 1.57 µM) | 
3 | NC[C@@H]1CC[C@@H](N)[C@@H](O[C@@H]2[C@@H](N)C[C@@H](N)[C@H](O[C@H]3O[C@H](CO)[C@@H](O)[C@H](N)[C@H]3O)C2(F)F)O1 [Compound 5FF-DKB, 5,3',4'-trideoxy-5,5-difluorokanamycin B] | 100 (≈ 212 µM) | 0.78 (≈ 1.65 µM) | 0.39 (≈ 0.827 µM) | 1.56 (≈ 3.31 µM) | 1.56 (≈ 3.31 µM) | 1.56 (≈ 3.31 µM) | 12.5 (≈ 26.5 µM) | 3.12 (≈ 6.62 µM) |  | 12.5 (≈ 26.5 µM) | 3.12 (≈ 6.62 µM) | 250 | 1.56 (≈ 3.31 µM) | 1.56 (≈ 3.31 µM) | > 100 | 0.39 (≈ 0.827 µM) | 0.39 (≈ 0.827 µM) | 0.39 (≈ 0.827 µM) | 0.78 (≈ 1.65 µM) | 
4 | NCC[C@H](O)C(=O)N[C@@H]1C[C@H](N)[C@@H](O[C@H]2O[C@H](CN)CC[C@H]2N)C(F)(F)[C@H]1O[C@H]1O[C@H](CO)[C@@H](O)[C@H](N)[C@H]1O [Compound 5FF-DKB-AHB, 1-N-[(S)-4-amino-2-hydroxybutyryl]-5,3',4'-trideoxy-5,5-difluorokanamycin B] | 3.12 (≈ 5.45 µM) | 0.39 (≈ 0.681 µM) | 0.39 (≈ 0.681 µM) | 0.78 (≈ 1.36 µM) | < 0.2 | 0.39 (≈ 0.681 µM) | 0.78 (≈ 1.36 µM) | 3.12 (≈ 5.45 µM) | 0.39 (≈ 0.681 µM) | 1.56 (≈ 2.72 µM) | < 0.2 | ~200 | 0.78 (≈ 1.36 µM) | < 0.2 | 12.5 (≈ 21.8 µM) | < 0.2 | 0.78 (≈ 1.36 µM) | 0.39 (≈ 0.681 µM) |  | 
5 | CN[C@@H]1[C@@H](O)[C@@H](O[C@H]2[C@H](N)C[C@H](N)[C@@H](O[C@H]3O[C@H]([C@@H](C)NC)CC[C@H]3N)C2(F)F)OC[C@]1(C)O [Compound 5FF-Genta-C1, 5-deoxy-5,5-difluorogentamicin C1] | 1.56 (≈ 3.14 µM) | 1.56 (≈ 3.14 µM) | 1.56 (≈ 3.14 µM) | 1.56 (≈ 3.14 µM) |  | 0.78 (≈ 1.57 µM) | 25 (≈ 50.2 µM) | 12.5 (≈ 25.1 µM) | 1.56 (≈ 3.14 µM) | 1.56 (≈ 3.14 µM) | 12.5 (≈ 25.1 µM) | ~200 | 3.12 (≈ 6.27 µM) | 3.12 (≈ 6.27 µM) | 25 (≈ 50.2 µM) | 1.56 (≈ 3.14 µM) | 6.25 (≈ 12.6 µM) | 1.56 (≈ 3.14 µM) |  | 0.78 (≈ 1.57 µM)
